Results reported in US8173638B2 (Boehringer Ingelheim International GmbH, priority 2006, dated 2012).

target: T1, human CB2R (Homo sapiens, UniProt P34972); test: CB2R mediated modulation of cAMP synthesis; format: cell-based; conditions: not given
T1 construct: host or cells: CHO cells
How it was run: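 Forskolin (10 uM)-driven cAMP in human CB2R-expressing CHO cells, read with DiscoverX-XS kit after 30 min compound exposure at 37 °C, 1 mM IBMX, 0.25% BSA. 100% defined as forskolin cAMP relative to 1 uM CP55940 inhibition. Agonist EC50 via four-parameter logistic model.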

T1 sequence (P34972 whole entry): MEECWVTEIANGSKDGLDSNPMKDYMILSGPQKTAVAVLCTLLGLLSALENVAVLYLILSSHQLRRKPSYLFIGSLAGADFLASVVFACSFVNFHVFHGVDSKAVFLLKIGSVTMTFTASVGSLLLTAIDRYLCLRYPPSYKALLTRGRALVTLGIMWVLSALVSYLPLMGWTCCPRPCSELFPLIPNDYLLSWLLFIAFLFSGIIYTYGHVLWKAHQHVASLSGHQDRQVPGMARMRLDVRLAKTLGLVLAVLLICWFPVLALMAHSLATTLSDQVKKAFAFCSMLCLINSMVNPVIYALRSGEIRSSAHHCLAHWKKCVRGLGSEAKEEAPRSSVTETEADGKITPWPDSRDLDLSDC

Row | Structure (SMILES) | EC50 [nM]
1 | CC(C)c1ccc(NC(=O)N2CCCN(C(=O)CC(C)(C)C)CC2)cc1 [Compound 60, 4-(3,3-Dimethyl-butyryl)-[1,4]diazepane-1-carboxylic acid (4-isopropyl-phenyl)-amide] | 78

same assay, conditions: 0.5 h; CHO cells expressing human CB2R; cAMP inhibited by 1 uM CP55940 defined as 100%; read-out: Agonist Efficacy (%)

Row | Emax [%] | Structure (SMILES)
2 | 96 | O=C(Nc1ccc2ccccc2c1)N1CCCN(C(=O)c2ccc(C(F)(F)F)cc2)CC1 [Compound 92, 4-(4-Trifluoromethyl-benzoyl)-[1,4]diazepane-1-carboxylic acid naphthalen-2-ylamide]
3 | 100 | O=C(Nc1ccc(C(F)(F)F)cc1)N1CCCN(C(=O)c2ccc(C(F)(F)F)cc2)CC1 [Compound 127, 4-(4-Trifluoromethyl-benzoyl)-[1,4]diazepane-1-carboxylic acid (4-trifluomethyl-phenyl)-amide]

same assay, conditions: CHO, 0.5 h, read-out: Agonist Efficacy (%)

Row | Structure (SMILES) | Emax [%]
4 | CC(C)c1ccc(NC(=O)N2CCCN(C(=O)CC(C)(C)C)CC2)cc1 [Compound 60, 4-(3,3-Dimethyl-butyryl)-[1,4]diazepane-1-carboxylic acid (4-isopropyl-phenyl)-amide] | 71

same assay, conditions: found through the use of the described assays (CB2 agonists); qualitative statement

Row | agonistic activity | Structure (SMILES)
5 | agonistic activity | O=C(Nc1cc(Cl)cc(Cl)c1)N1CCCN(C(=O)c2ccc(Cl)cc2)CC1 [4-(4-Chloro-benzoyl)-[1,4]diazepane-1-carboxylic acid (3,5-dichloro-phenyl)-amide]
6 | agonistic activity | O=C(CC1CCCC1)N1CCCN(C(=O)Nc2ccc(Cl)cc2Cl)CC1 [4-(2-Cyclopentyl-acetyl)-[1,4]diazepane-1-carboxylic acid (2,4-dichloro-phenyl)-amide]
7 | agonistic activity | CC(C)(C)c1ccc(NC(=O)N2CCCN(C(=O)CCC(F)(F)F)CC2)cc1 [4-(4,4,4-Trifluoro-butyryl)-[1,4]diazepane-1-carboxylic acid (4-tert-butyl-phenyl)-amide]
8 | agonistic activity | O=C(Nc1ccc(C(F)(F)F)cc1)N1CCCN(C(=O)c2ccc(C(F)(F)F)cc2)CC1
9 | agonistic activity | CC(C)(C)c1ccc(NC(=O)N2CCCN(C(=O)CNc3ccccc3)CC2)cc1 [4-(2-Phenylamino-acetyl)-[1,4]diazepane-1-carboxylic acid (4-tert-butyl-phenyl)-amide]
10 | agonistic activity | Cc1nc(NC(=O)N2CCCN(C(=O)C3CCC(F)(F)CC3)CC2)sc1C(C)(C)C [4-(4,4-Difluoro-cyclohexanecarbonyl)-[1,4]diazepane-1-carboxylic acid (5-tert-butyl-4-methyl-thiazol-2-yl)-amide]
11 | agonistic activity | CCCc1ccc(NC(=O)N2CCCN(C(=O)CCC3CCCC3)CC2)cc1 [4-(3-Cyclopentyl-propionyl)-[1,4]diazepane-1-carboxylic acid (4-propyl-phenyl)-amide]
12 | agonistic activity | CC(C)(C)c1ccc(NC(=O)N2CCCN(C(=O)COc3ccccc3)CC2)cc1 [4-(2-Phenoxy-acetyl)-[1,4]diazepane-1-carboxylic acid (4-tert-butyl-phenyl)-amide]
13 | agonistic activity | CC(C)c1ccc(NC(=O)N2CCCN(C(=O)CC3CCOCC3)CC2)cc1 [4-(2-Tetrahydro-pyran-4-yl-acetyl)-[1,4]diazepane-1-carboxylic acid (4-isopropyl-phenyl)-amide]
14 | agonistic activity | CC(C)(C)c1cc(NC(=O)N2CCCN(C(=O)C3CCS(=O)(=O)CC3)CC2)no1 [4-(1,1-Dioxo-hexahydro-1λ^6-thiopyran-4-carbonyl)-[1,4]diazepane-1-carboxylic acid (5-tert-butyl-isoxazol-3-yl)-amide]
15 | agonistic activity | CC(C)(C)C(=O)N1CCCN(C(=O)Nc2cc(C(C)(C)C)on2)CC1 [4-(2,2-Dimethyl-propionyl)-[1,4]diazepane-1-carboxylic acid (5-tert-butyl-isoxazol-3-yl)-amide]

Row | Structure (SMILES) | agonistic activity
16 | CC(C)(C)c1cc(NC(=O)N2CCCN(C(=O)NC3CCOCC3)CC2)no1 | agonistic activity
17 | COC1CCC(C(=O)N2CCCN(C(=O)Nc3cc(C(C)(C)C)on3)CC2)CC1 (centres unmarked) [4-(4-Methoxy-cyclohexanecarbonyl)-[1,4]diazepane-1-carboxylic acid (5-tert-butyl-isoxazol-3-yl)-amide] | agonistic activity
18 | CC(C)(C)c1cc(NC(=O)N2CCCN(C(=O)N3CCC(F)(F)CC3)CC2)no1 [4-(4,4-Difluoro-piperidine-1-carbonyl)-[1,4]diazepane-1-carboxylic acid (5-tert-butyl-isoxazol-3-yl)-amide] | agonistic activity

same assay, conditions: read-out: hCB2 cAMP EC50

Row | EC50 [nM] | Structure (SMILES)
19 | 14 | O=C(Nc1ccc2ccccc2c1)N1CCCN(C(=O)c2ccc(C(F)(F)F)cc2)CC1 [Compound 92, 4-(4-Trifluoromethyl-benzoyl)-[1,4]diazepane-1-carboxylic acid naphthalen-2-ylamide]
20 | 75 | O=C(Nc1ccc(C(F)(F)F)cc1)N1CCCN(C(=O)c2ccc(C(F)(F)F)cc2)CC1 [Compound 127, 4-(4-Trifluoromethyl-benzoyl)-[1,4]diazepane-1-carboxylic acid (4-trifluomethyl-phenyl)-amide]
